Assay results as given in paper PMC2409587 (British Journal of Cancer, 2004).
Where two headings read alike, the source gives them in different places.

How the values were obtained:
[1] = test system: transformed human lung-derived cells; set-up: method as in Lu et al, 2001; conditions: ref Lu et al, 2001; cited from earlier work
[2] = rats, ref Verschoyle et al, unpublished, cited from earlier work
[3] = format: in vivo, mouse; conditions: agents at 0.2% in the diet for 2 weeks; result not shown
Description: ). Both agents were rapidly cleared from blood and tissues within an hour of administration (Figure 3). […] DMU 212 levels reached a peak after 10 min, except in the case of the colon, in which the peak occurred after 30 min. The peak levels for DMU 212 were 5 μM in the plasma and 8, 11, 11, 5, 10, 7600 and 330 nmols g^−1 tissue in the liver, kidney, lung, brain, heart, small intestinal and colonic mucosae, respectively. We performed a preliminary experiment in order to explore whether the difference in gastrointestinal levels would also be observed when the agents are administered with the diet, the route often used in preclinical cancer chemoprevention studies. Agents were admixed with the diet at 0.2% and fed for 2 weeks.

[4] = Plasma and tissue levels in mice after a single intragastric dose; format: in vivo, mouse; conditions: for peak concentration / AUC: mice, 240 mg/kg i.g.; for AUC: 0-120 min
Description: Animal experiments were conducted as stipulated by Project Licence 40/2496 granted by the UK Home Office. Experiments were vetted and approved by the Leicester University Animal Welfare Committee and complied with the UKCCCR guidelines for the welfare of animals in experimental neoplasia. […] The vehicle was glycerol formal, and the dose volume approximately 10 ml kg^−1. In the case of DMU 212, the vehicle also contained 10% DMSO. Mice were killed by terminal gaseous anaesthesia at 10, 30, 60 or 120 min postdosing. Blood was collected by cardiac puncture, and plasma was obtained by centrifugation. The liver, kidney, lung, heart, brain and gut were excised, and scrapings were obtained from small intestine and colon. Tissues were snap-frozen (liquid nitrogen) and stored at −80°C until analysis.
Tissues were homogenised (1 : 1 volume to tissue mass ratio) in 50 mM Hepes buffer (Sigma, Poole, UK) using a hand-held glass homogeniser. An aliquot (250 μl) of homogenate, to which an internal standard had been added was vortexed, followed by the addition of acetonitrile (1 ml). After vigorous shaking, mixtures were kept on ice (5–10 min) and centrifuged (2800 g, 10 min, 4°C). The supernatants were dried under a stream of nitrogen and reconstituted in mobile phase (100 μl).
(§1) HPLC analysis was performed using a Varian Prostar HPLC system (Varian, UK) with a Pro-Star 230 solvent delivery system, a Pro-Star 310 UV–Vis detector, a Pro-Star 363 Fluorescence detector, a 410 Varian autosampler and an Ultracarb C18 column (4.6 mm × 250 mm, 5 μm, Phenomenex, UK). The mobile phase consisted of the three components: aqueous ammonium acetate (pH 6.5, 50 mM), propan-2-ol and acetonitrile. […] The flow rate for both methods was 1 ml min^−1.
(§2) The injection volume of samples reconstituted in the mobile phase was 50 μl.
The curves were characterised by regression coefficients of R^2=0.99 or above. […] Therefore, metabolites were not quantitated.
The area under the plasma or tissue concentration vs time curve (AUC) values were calculated using the trapezoidal rule (WinNonlin v.1.1, Scientific Consultants, USA).

[5] = Metabolite characterisation in plasma and tissues of dosed mice; format: in vivo, mouse; conditions: 240 mg/kg i.g., HPLC cochromatography and mass spectrometry
Description: The vehicle was glycerol formal, and the dose volume approximately 10 ml kg^−1. […] Mice were killed by terminal gaseous anaesthesia at 10, 30, 60 or 120 min postdosing. Blood was collected by cardiac puncture, and plasma was obtained by centrifugation. The liver, kidney, lung, heart, brain and gut were excised, and scrapings were obtained from small intestine and colon. Tissues were snap-frozen (liquid nitrogen) and stored at −80°C until analysis.
Tissues were homogenised (1 : 1 volume to tissue mass ratio) in 50 mM Hepes buffer (Sigma, Poole, UK) using a hand-held glass homogeniser. […] After vigorous shaking, mixtures were kept on ice (5–10 min) and centrifuged (2800 g, 10 min, 4°C). The supernatants were dried under a stream of nitrogen and reconstituted in mobile phase (100 μl).
HPLC analysis was performed using a Varian Prostar HPLC system (Varian, UK) with a Pro-Star 230 solvent delivery system, a Pro-Star 310 UV–Vis detector, a Pro-Star 363 Fluorescence detector, a 410 Varian autosampler and an Ultracarb C18 column (4.6 mm × 250 mm, 5 μm, Phenomenex, UK). […]
Mass spectrometry was performed using a Quattro Bio-Q tandem quadrupole mass spectrometer upgraded to Quattro MK II specifications (Micromass, Manchester, UK) with a pneumatically assisted electrospray interface. Samples were analysed in positive ion mode.

[6] = test system: HCA-7 and HT-29 colon cancer cells; experiment: Effect of agents on growth of colon cancer cells, range stated over both lines; format: cell-based; conditions: Homo sapiens, 168 h, read-out: IC50 values (cell growth), range over both agents and both cell lines
Description: (§3) Cells were seeded (10^4 per well) in 24-well plates and cultured in DMEM containing Glutamax I (Life Technologies, Paisley, UK) and glucose (4.5 g l^−1) and 10% foetal calf serum (Gibco, Paisley, UK). […] Cells were counted 72, 96, 120, 144 and 168 h postaddition of agents using a Z2 Coulter Particle Count and Size Analyzer (Beckman Coulter, High Wycombe, UK). Control cultures contained the vehicle only. […] The IC50 values inserted in Figure 5 were calculated from the linear portion of the cell number-vs agent concentration curves at the 168 h time point.

HT-29 colon cancer cells = experiment: Effect of agents on growth of HT-29 cells; format: cell-based; conditions: Homo sapiens, read-out: IC50 (cell growth)
Description: as §3

HCA-7 colon cancer cells = experiment: Effect of agents on growth of HCA-7 cells; format: cell-based; conditions: Homo sapiens, 168 h time point, cell counts
Description: as §3

[7] = Incubation with mouse liver microsomes; format: in vitro ADME; conditions: mouse liver microsomes 0.5 mg protein ml^−1, NADPH 1 mM, substrate 1 mM, 20 min, 37°C
Description: Microsomes were prepared by differential centrifugation of mouse liver homogenate first at 9 × 10^3 g (20 min, 4°C), then at 10^5 g (1 h) in a Beckman L-8-60 ultracentrifuge (Beckman Coulter UK Ltd, High Wycombe, Buckinghamshire, UK). The microsomal pellet was suspended in Tris buffer (50 mM, pH 7.4), recentrifuged at 10^5 g (1 h) and resuspended in Tris buffer. Liver microsomes from two to four mice were pooled. […] The addition of one volume of ice-cold methanol terminated the reaction. The mixture was vortexed (30 s), centrifuged (3 min, 13 400 g) and the supernatant was collected and analysed by HPLC.
as §1, §2

[8] = plasma and tissues (for DMU 212 except colon), 10 min was the first time point

Row | Structure (SMILES) | peak concentration ([4]; brain) | AUC ([4]; brain) | peak concentration ([4]; colonic mucosa) | AUC ([4]; colonic mucosa) | peak concentration ([4]; heart) | AUC ([4]; heart) | AUC ([4]; intestinal mucosa) | peak concentration ([4]; kidney) | AUC ([4]; kidney) | peak concentration ([4]; liver) | AUC ([4]; liver) | peak concentration ([4]; lung) | AUC ([4]; lung) | time at which levels peaked [4, 8] | peak concentration ([4]; plasma) | AUC ([4]; plasma) | peak concentration ([4]; small intestinal mucosa) | microsomal biotransformation (HPLC peaks besides parent) [7] | also measured
1 | COc1ccc(C=Cc2cc(OC)c(OC)c(OC)c2)cc1 [DMU 212, 3,4,5,4′-tetramethoxystilbene] | 5 nmols g^−1 tissue | 193 nmoles ml^−1 or g^−1 min | 330 nmols g^−1 tissue | 19 256 nmoles ml^−1 or g^−1 min | 10 nmols g^−1 tissue | 750 nmoles ml^−1 or g^−1 min | 369 315 nmoles ml^−1 or g^−1 min | 11 nmols g^−1 tissue | 566 nmoles ml^−1 or g^−1 min | 8 nmols g^−1 tissue | 432 nmoles ml^−1 or g^−1 min | 11 nmols g^−1 tissue | 778 nmoles ml^−1 or g^−1 min | 10 min | 5 µM | 246 nmoles ml^−1 or g^−1 min | 7600 nmols g^−1 tissue | afforded peaks in addition to that of parent DMU 212 | concentration required to cause significant arrest of transformed lung cell growth in vitro [1]: 10 µM; toxicity ([2]; single doses of up to 40 mg kg^−1 i.v.): devoid of any toxicity; toxicity ([2]; single doses of up to 400 mg kg^−1 p.o.): devoid of any toxicity; colonic levels of DMU 212 relative to those of resveratrol [3]: two-fold; time at which levels peaked ([4]; colon): 30 min; factor by which peak level exceeded the concentration arresting transformed lung cell growth (10 μM) ([4]; small intestinal mucosa): 760; metabolism in mice in vivo [5]: underwent metabolic hydroxylation or single and double O-demethylation; IC50 [6]: 6 to 26 µM; IC50 (HT-29 colon cancer cells; HT-29, 168 h): 11.3 ± 1.1 µM; IC50 (HCA-7 colon cancer cells): 6 ± 0.2 µM
2 | Oc1ccc(/C=C/c2cc(O)cc(O)c2)cc1 [resveratrol, trans-3,5,4′-trihydroxystilbene, reference compound] | 1.2 nmols g^−1 tissue | 103 nmoles ml^−1 or g^−1 min | 30 nmols g^−1 tissue | 2869 nmoles ml^−1 or g^−1 min | 75 nmols g^−1 tissue | 2072 nmoles ml^−1 or g^−1 min | 36 690 nmoles ml^−1 or g^−1 min | 16 nmols g^−1 tissue | 785 nmoles ml^−1 or g^−1 min | 51 nmols g^−1 tissue | 2150 nmoles ml^−1 or g^−1 min | 50 nmols g^−1 tissue | 1123 nmoles ml^−1 or g^−1 min | 10 min | 32 µM | 863 nmoles ml^−1 or g^−1 min | 960 nmols g^−1 tissue | did not yield any peak in addition to that of the parent substrate | IC50 ([6]; HCA-7 and HT-29 cells): 6 to 26 µM; IC50 (HT-29 colon cancer cells; HT-29 cells, 168 h time point, cell counts): 19.9 ± 0.3 µM
